The results in this text go back to patent EP1614683B1, “Indazole compounds and pharmaceutical compositions for inhibiting protein kinases, and methods for their use” (priority 1999, dated 2001).

The target of one series is CDK4/Cyclin D3 complex (Homo sapiens, UniProt P11802). Kind of series: biochemical. Conditions: for inhibition at 1 µM: read-out: CDK4 * (% inhibition).
A further series has as its target CDK2/Cyclin A complex (Homo sapiens, UniProt P24941). Kind of series: CDK2/Cyclin A assay ([32P]ATP incorporation into Rb fragment). The format is biochemical. Conditions: for inhibition at 1 µM: read-out: CDK2 * (% inhibition).
Another series concerns the target T1, human FAK (FAKcd409) (Homo sapiens, UniProt Q05397, P410T).
T1 construct: comprises residues methionine 409 to glutamate 689; made in house; host or cells: baculovirus vector expression system (insect cells)
Kind of series: FAK fluorescence polarization assay. The format is biochemical. Conditions: read-out: % Inhibition FAK, compound tested at 10 µM. As for the experimental part:
FAK Construct for Assay. The catalytic domain of human FAK (FAKcd409) was expressed using the baculovirus vector expression system. […] The protein was purified using classical chromatography techniques.
FAK HTS utilized the fluorescence polarization assay provided by LJL Biosystems. The kinase reaction contained: 100mM Hepes pH 7.5, 10mM MgCl2, 1mM DTT, 1mM ATP, and 1mg/ml poly Glu-Tyr (4: 1). The reaction is initiated by the addition of 5nM FAKcd409. The reaction is terminated by the addition of EDTA followed by addition of fluor-labelled peptide and anti-phosphotyrosine antibody, both provided by LJL Biosystems. Inhibition results are read on a Analyst (LJL) detector.
On the technique in general: In fluorescence polarisation assays a small probe gives low polarisation when free and higher when bound to something large.

Series [1] has as its system lung cancer cells (line MV522). Kind of series: Cancer cell proliferation (MV522) assay. The format is cell-based. The procedure:
The protocol for assessing cellular proliferation in cancer cells is similar to that used for assessments in HUVEC cells. Two thousand lung cancer cells (line MV522, acquired from American Tissue Cultural Collection) were seeded in growth media (RPMI1640 medium supplemented with 2 mM glutamine and 10% FBS). Cells are allowed to attach for 1 day prior to addition of test agents and /or vehicles. Cells are treated simultaneously with the same test agents used in the HUVEC assay. Cellular proliferation is quantified by MTT dye reduction assay 72 hours after exposure to test agents. The total length of the assay is 4 days vs. 5 for HUVEC cells because MV522 cells are not exposed to starvation medium.

For series [2] the following is noted: vehicle PEG400:H2O pH 2.3 30:70.
A short description of another series: in vivo. Conditions: mouse, plasma, pH 2.3.
The nature of a further series: in vitro. The format is in vitro ADME, human. Conditions: human liver microsomes, 5 µM test compound, 37 °C, 2 h. An outline of the steps: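 HLM diluted to 5 mg/mL in 100 mM KPO4, preincubated 10 min at 37 °C with NADPH-regenerating system. Compound (5 µM final) incubated at 37 °C in triplicate, sampled at 0 and 2 h into ice-cold acetonitrile, then LC-MS analysis.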

In series [3] the target is T2, phosphorylated Tie-2 (aa 775-1122) (Homo sapiens, UniProt Q02763).
T2 construct: 4 to 12 nM phosphorylated Tie-2 (aa 775-1122); made in house; host or cells: insect cells
T2 sequence (Q02763 775-1122): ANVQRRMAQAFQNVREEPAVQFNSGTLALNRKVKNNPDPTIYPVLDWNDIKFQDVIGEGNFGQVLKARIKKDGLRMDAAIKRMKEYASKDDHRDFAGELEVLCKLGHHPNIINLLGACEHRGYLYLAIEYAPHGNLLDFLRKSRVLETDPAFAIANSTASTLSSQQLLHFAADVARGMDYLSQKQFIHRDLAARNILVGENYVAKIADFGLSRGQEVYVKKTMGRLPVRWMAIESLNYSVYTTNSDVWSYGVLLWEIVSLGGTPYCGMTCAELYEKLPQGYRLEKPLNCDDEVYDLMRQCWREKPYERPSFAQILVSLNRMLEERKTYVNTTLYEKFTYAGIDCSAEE
Kind of series: TIE-2 spectrophotometric assay. The format is biochemical. The note with it: for inhibition at 1 µM: Table 5, bold values spectrophotometric assay, non-bolded DELFIA assay (bold not visible here), read-out: % Inhibition @ 1 µM Tie2-P. In a few lines:
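Human phosphorylated Tie-2 kinase activity was measured spectrophotometrically by coupling ADP formation, from phosphoryl transfer to poly(Glu4 Tyr), to NADH oxidation via pyruvate kinase and lactate dehydrogenase. Absorbance loss at 340 nm was read on a Beckman DU650. Reactions held 1 mM phosphoenolpyruvate, 0.24 mM NADH, 40 mM MgCl2, 5 mM DTT, 0.5 mM ATP, and 15 units/mL each of PK and LDH in 100 mM HEPES, pH 7.5.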

Series [4] relates to VEGF dependent retinal neovascularization. Kind of series: Neonatal rat model of retinopathy of prematurity. The format is in vivo. Conditions: Model ROP, intravitreal, 10 mg/ml, vehicle PEG/water 70:30.
Another series addresses human FGF-R1 (Homo sapiens, UniProt P11362, C488A/C584S/L457V). Kind of series: FGF-R spectrophotometric assay. The format is biochemical. Conditions: Table 1; compound concentration 1 µM; read-out: FGF-P* (% inhibition). The procedure: The spectrophotometric assay was carried out as described above for VEGF-R2, except for the following changes in concentration: FGF-R = 50 nM, ATP = 2 mM, and poly(E4Y1) =15 mM.

In series [5] the test system is human umbilical vein endothelial cells (HUVEC). Kind of series: HUVEC proliferation assay (VEGF-stimulated, MTT). The note with it: Homo sapiens, HUVEC, Table 1. The format is cell-based.
The next series concerns the target LCK tyrosine kinase (Homo sapiens, UniProt P06239, C224D/P223M). Kind of series: LCK spectrophotometric assay. The format is biochemical. The note with it: Table 1; compound concentration 1 µM; read-out: Lck-P* (% inhibition). The procedure: The spectrophotometric assay was carried out as described above for VEGF-R2, except for the following changes in concentration: LCK = 60 nM, MgCl2 = 0 mM, poly(E4Y1) = 20 mM.

Series [6] deals with VEGF dependent retinal vascular development. Kind of series: In vivo assay of retinal vascular development in neonatal rats. Also noted: species or system rat. As for the experimental part:
The development of the retinal vascular in rats occurs from postnatal day 1 to postnatal day 14 (P1-P14). […] To assess the ability of specific compounds to inhibit the activity of VEGF in vivo, compounds were formulated in an appropriate vehicle, usually 50% polyethylene glycol, average molecular weight 400 daltons, and 50% solution of 300 mM sucrose in deionized water. […] Six days after the intravitreal injection, the animals were sacrificed and the retinas dissected free from the remaining ocular tissue. […] The individual retinas are then flat-mount onto glass slides and examined to determine the extent of vascularization. […] The amount of vessel regression was used to assess the relative potency of the compounds after in vivo administration.
For more quantitative analysis of regression, images of ADPase-stained, flat-mounted retinas were captured with a digital camera attached to a dissecting microscope. Retinal images were then imported into an image analysis software (Image Pro Plus 4.0, Media Cybernetics, Silver Spring, MD). The software was employed to determine the percentage of the area of the retina that contained stained vessels. This value for the experimental eye was compared to that measured for the vehicle injected, contralateral eye from the same animal. The reduction in the vascular area seen in the eye that received compound as compared to the vehicle-injected eye was then expressed as the "percent regression" for that sample.

Series [7] concerns the target unphosphorylated VEGF-R2Δ50 (Homo sapiens, UniProt P35968, DEL940-989/E990V). Kind of series: biochemical. The note with it: read-out: FLVK* (% inhibition).
[8] abbreviates: MV522, Table 1, read-out: MV522 IC50.
Setting [9] is: + albumin, read-out: HUVEC + albumin IC50.

Read-outs that look alike come from different tables or passages of the source. Some results are limits rather than exact numbers.

CDK4/Cyclin D3 complex, sequence (P11802 whole entry, the tested form may be a part): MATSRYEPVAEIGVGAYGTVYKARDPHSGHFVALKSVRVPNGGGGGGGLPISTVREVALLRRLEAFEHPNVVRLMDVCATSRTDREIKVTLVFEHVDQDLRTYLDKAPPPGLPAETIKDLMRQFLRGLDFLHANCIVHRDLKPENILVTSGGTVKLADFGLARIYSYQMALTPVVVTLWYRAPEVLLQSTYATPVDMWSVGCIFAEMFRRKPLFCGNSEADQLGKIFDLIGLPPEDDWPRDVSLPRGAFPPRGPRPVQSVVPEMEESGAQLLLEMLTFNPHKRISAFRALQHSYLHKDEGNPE
CDK4/Cyclin D3 complex, sequence (P30281 whole entry partner, the tested form may be a part): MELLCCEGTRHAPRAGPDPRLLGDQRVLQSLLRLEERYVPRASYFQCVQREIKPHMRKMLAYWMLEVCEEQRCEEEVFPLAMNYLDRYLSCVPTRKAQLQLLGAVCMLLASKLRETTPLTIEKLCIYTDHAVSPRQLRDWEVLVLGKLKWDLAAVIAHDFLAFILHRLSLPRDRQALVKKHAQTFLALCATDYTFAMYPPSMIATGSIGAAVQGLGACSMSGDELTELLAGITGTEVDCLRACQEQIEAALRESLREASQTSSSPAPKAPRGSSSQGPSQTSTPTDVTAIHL
LCK tyrosine kinase, sequence (P06239 223-509 P223M/C224D): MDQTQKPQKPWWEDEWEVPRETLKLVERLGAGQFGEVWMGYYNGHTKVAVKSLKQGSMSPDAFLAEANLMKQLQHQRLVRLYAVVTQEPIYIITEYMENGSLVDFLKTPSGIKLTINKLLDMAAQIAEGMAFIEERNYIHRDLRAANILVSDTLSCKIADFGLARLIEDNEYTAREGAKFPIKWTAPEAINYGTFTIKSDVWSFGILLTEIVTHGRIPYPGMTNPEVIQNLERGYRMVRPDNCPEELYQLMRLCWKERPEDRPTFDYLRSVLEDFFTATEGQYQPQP
human FGF-R1, sequence (P11362 456-766 L457V/C488A/C584S): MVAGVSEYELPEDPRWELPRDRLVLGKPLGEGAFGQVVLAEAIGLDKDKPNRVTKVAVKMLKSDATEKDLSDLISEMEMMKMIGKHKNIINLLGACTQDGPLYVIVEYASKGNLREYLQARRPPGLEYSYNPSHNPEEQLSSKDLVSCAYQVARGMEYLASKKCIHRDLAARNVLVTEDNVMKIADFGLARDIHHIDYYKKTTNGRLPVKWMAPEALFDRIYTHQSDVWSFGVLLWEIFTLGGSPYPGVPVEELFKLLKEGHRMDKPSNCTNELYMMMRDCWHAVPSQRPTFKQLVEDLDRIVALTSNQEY
unphosphorylated VEGF-R2Δ50, sequence (P35968 with tags, fused parts or gaps DEL940-989/E990V limits assumed): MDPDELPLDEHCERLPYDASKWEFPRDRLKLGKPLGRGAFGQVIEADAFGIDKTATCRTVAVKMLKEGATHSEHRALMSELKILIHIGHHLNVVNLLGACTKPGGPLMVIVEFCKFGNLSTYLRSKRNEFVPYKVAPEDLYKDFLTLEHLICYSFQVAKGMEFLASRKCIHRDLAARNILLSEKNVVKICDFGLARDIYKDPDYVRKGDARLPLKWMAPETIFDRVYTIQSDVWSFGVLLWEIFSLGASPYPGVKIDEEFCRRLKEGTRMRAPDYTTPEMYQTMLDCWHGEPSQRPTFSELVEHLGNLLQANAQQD
T1 sequence (Q05397 409-689 P410T): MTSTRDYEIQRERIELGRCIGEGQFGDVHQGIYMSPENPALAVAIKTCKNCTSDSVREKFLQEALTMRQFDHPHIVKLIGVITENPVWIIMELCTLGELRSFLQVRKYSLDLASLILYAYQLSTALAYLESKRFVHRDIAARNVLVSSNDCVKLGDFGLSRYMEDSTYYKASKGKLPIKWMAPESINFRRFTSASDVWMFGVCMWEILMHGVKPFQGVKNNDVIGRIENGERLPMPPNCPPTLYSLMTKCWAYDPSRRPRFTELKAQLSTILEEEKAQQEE

As usually defined, the Ki is the dissociation constant of the complex between target and ligand, obtained from inhibition or displacement. With `Clc1cccc(/C=C/c2n[nH]c3cc(-c4ccncc4)ccc23)c1` [Reference Example 29(i), 6-pyrid-4-yl-3-E-[2-(3-chlorophenyl)ethenyl]-1H-indazole], the Ki worked out at 5000 nM on CDK4/Cyclin D3 complex and 3100 nM on CDK2/Cyclin A complex (Table 3, read-out: CDK2* (Ki)).

What is called inhibition is the share of the control response that was lost under treatment. As a reminder, the IC50 is the concentration that inhibits the measured activity by half. What is called AUC is the area under the concentration-time curve, a measure of exposure. A higher AUC goes with high exposure. `COc1cc(-c2ccc3c(/C=C/c4ccc(OC)c(OC)c4)n[nH]c3c2)ccc1O` [1(a), 3-[E-2-(3,4-Dimethoxy-phenyl)vinyl]-6-(3-methoxy-4-hydroxyphenyl)-1H-indazole]: the inhibition at 10 µM is 69% on human FAK (FAKcd409) and 95% in series [3] (read-out: % Inhibition Tie2-P, compound tested at 10 µM). Besides, the IC50 in [1] (MV522, read-out: MV522 IC50 (µM)) worked out at 0.35 µM. Besides, the T1/2 in [2] (IP, 50 mg/kg) is 2.4 h. The same compound had an exposure (AUC) in the series “in vivo” (ip, 50 mg/kg) of 691 ng·h/mL. In the series “in vitro”, the “% remain (HLM, 2 h)” value stood at 98%.

As a reminder, the Cmax is the peak of the concentration-time curve. For `O=C(Nc1cccc(C(=O)c2ccc3c(/C=C/c4ccccc4)n[nH]c3c2)c1)c1ccccc1` [19(b), N-[3-(3-Styryl-1H-indazole-6-carbonyl)-phenyl]-benzamide], the “Initial Evaluation” value in series [4] is listed as “++ (two pluses being judged to be approximately 25-75 % regression)”. For the same compound, the IC50 in [1] (setting [8]) is 4.3 µM; in [5] (setting [9]) it was 27 nM; in series [5] (read-out: HUVEC IC50), 2.9 nM. In addition, the results for the inhibition at 1 µM at human FGF-R1, on CDK4/Cyclin D3 complex and on LCK tyrosine kinase were 60%, 11% and 58%, respectively. For the same compound, the Cmax in “in vivo” (po, 50 mg/kg) amounted to 30 ng/mL. Moreover, the remaining at 2 h, 5 µM in the series “in vitro” (read-out: % remain (HLM, 2 h)) was determined as 137%.

In general, % Inhibition refers to the drop in the measured response relative to a control, in per cent. The low end stands for little suppression, the high end for strong suppression. In the case of `O=C(Nc1cccc(C(=O)c2ccc3c(-c4nc5ccccc5[nH]4)n[nH]c3c2)c1)c1ccccc1` [Reference Example 42(b), 6-(3-Benzamidobenzoyl)-3-(1H-benzoimidazol-2-yl)-1H-indazole], the IC50 worked out at 2.1 µM in [1] (setting [8]), 29 nM in [5] (setting [9]) and 2.1 nM in [5] (read-out: HUVEC IC50). For the same compound, the inhibition at 1 µM on human FGF-R1 amounted to 27%; at LCK tyrosine kinase, 75%. Moreover, the “% Inhibition” value in [6] (Model P9, intravitreal, 10 mg/ml, vehicle PEG/water 70:30) was found to be 40%. Also, the “% remain (HLM, 2 h)” value in “in vitro” came to 81%.

For the compound `Cn1ccnc1C(=O)Nc1cccc(Oc2ccc3c(/C=C/c4ccccn4)n[nH]c3c2)c1` [Reference Example 31(e), 6-[3-((1-Methylimidazol-2-yl)carboxamido)phenoxy]-3-E-[2-(pyridin-2-yl)ethenyl]-1H-indazole], the IC50 was 8.6 µM in series [1] (setting [8]) and 6.2 nM in [5] (setting [9]). Moreover, the inhibition at 1 µM on human FGF-R1 was 62%; on LCK tyrosine kinase, 43%. This compound also showed a T1/2 in [2] (PO, 25 mg/kg) of 13.1 h. Further, in the series “in vivo” (po, 25 mg/kg), the AUC is greater than 30300 ng·h/mL. Besides, the “% Inhibition” value in [6] (Model P8, intravitreal, 5 mg/ml, vehicle PEG/water 50:50) was 24%. In addition, the “% remain (HLM, 2 h)” value in “in vitro” is listed as 49%.

As for `Oc1ccc(-c2ccc3c(/C=C/c4ccccc4)n[nH]c3c2)cc1` [Reference Example 28(b), 6-(4-hydroxyphenyl)-3-E-styryl-1H-indazole], the values for the inhibition at 1 µM (in series [7]; at CDK4/Cyclin D3 complex; on CDK2/Cyclin A complex) were 96%, 98% and 97%, respectively.

As for `CCOc1cc(CO)c(-c2ccc3c(-c4nc5ccccc5[nH]4)n[nH]c3c2)cc1OC` [Reference Example 24(m), 3-1H-Benzoimidazol-2-yl-6-(2-(hydroxymethyl)-4-ethoxy-5-methozy-phenyl)-1H-indazole], the inhibition at 1 µM was 16% on CDK4/Cyclin D3 complex and 17% at CDK2/Cyclin A complex.

Take `C=C(c1cccc(NC(C)=O)c1)c1ccc2c(/C=C/c3ccccc3)n[nH]c2c1` [Example 23, 6-(1-(3-Acetamido-phenyl)-vinyl)-3-styryl-1H-indazole]: the IC50 in series [1] (setting [8]) turned out to be 5.7 µM; in series [5] (setting [9]), 106 nM; in series [5] (read-out: HUVEC IC50), 9.5 nM. The inhibition at 1 µM on human FGF-R1 was 14%; at CDK4/Cyclin D3 complex it was 17%; in [3], 5%; at LCK tyrosine kinase, 12%.

In the case of `O=C(Nc1cccc(Oc2ccc3c(/C=C/c4ccccc4)n[nH]c3c2)c1)c1ccccc1` [4(a), N-[3-(3-Styryl-1H-indazol-6-yloxy)-phenyl]-benzamide], in series [4], the “Initial Evaluation” value is reported as “++ (two pluses being judged to be approximately 25-75 % regression)”. For the same compound, in series [1] (setting [8]), the IC50 amounted to 6.3 µM. The compound also yielded a Cmax in the series “in vivo” (po, 50 mg/kg) of 50 ng/mL. For the same compound, the results for the inhibition at 1 µM (at CDK4/Cyclin D3 complex; in [3]; at LCK tyrosine kinase) were 19%, 69% and 68%, respectively.
